Measurements: BindingDB's records for doi:10.1021/jm970446z (National Institute of Diabetes, 1998)

Molecular target: Adenosine receptor A2a (Rattus norvegicus, UniProt P30543)
Assay: Ability to displace [3H]-CGS- 21680 binding from adenosine A2A receptor.

Sequence of Adenosine receptor A2a (P30543 whole entry): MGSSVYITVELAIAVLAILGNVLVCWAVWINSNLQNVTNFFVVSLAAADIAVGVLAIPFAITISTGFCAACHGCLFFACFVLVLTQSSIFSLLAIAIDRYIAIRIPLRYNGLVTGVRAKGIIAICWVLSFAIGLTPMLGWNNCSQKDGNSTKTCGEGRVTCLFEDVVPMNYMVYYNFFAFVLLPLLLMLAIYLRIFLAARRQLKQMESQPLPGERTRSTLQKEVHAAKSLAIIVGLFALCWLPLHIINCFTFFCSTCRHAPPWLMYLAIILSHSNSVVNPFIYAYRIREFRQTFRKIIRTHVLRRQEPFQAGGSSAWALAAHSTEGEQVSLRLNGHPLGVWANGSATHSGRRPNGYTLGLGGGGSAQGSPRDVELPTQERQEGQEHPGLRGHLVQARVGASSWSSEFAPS

In order of falling Ki:
1. CCOc1c2ccoc2cc2oc(/C=C/C=C/c3ccccc3)cc(=O)c12 [4-Ethoxy-7-((1E,3E)-4-phenyl-buta-1,3-dienyl)-furo[3,2-g]chromen-5-one]  166 µM
2. CC(=O)Oc1cc(OC(C)=O)c2c(c1)OC(c1ccccc1)C(OC(C)=O)C2=O (stereo unspecified)  56.2 µM
3. O=c1c(Cl)c(-c2ccccc2)oc2ccc(Cl)cc12 [NSC-74876]  55 µM
4. COc1ccc(-c2cc(=O)c3ccc(O)cc3o2)cc1OC [2-(3,4-dimethoxyphenyl)-7-hydroxy-4H-chromen-4-one]  34.7 µM
5. CCOc1ccc(-c2oc3cc(OCC)cc(OCC)c3c(=O)c2OCC)c(OCC)c1 [2-(2,4-Diethoxy-phenyl)-3,5,7-triethoxy-chromen-4-one]  26.3 µM
6. O=c1c(Cl)c(-c2ccccc2)oc2ccccc12 [3-Chloro-2-phenyl-chromen-4-one]  25.1 µM
7. COc1c(O)cc2oc(-c3ccc(O)cc3)cc(=O)c2c1O [5,7-dihydroxy-2-(4-hydroxyphenyl)-6-methoxy-4H-chromen-4-one]  7.59 µM

Molecular target: T1, Adenosine receptor A1 (Rattus norvegicus, UniProt P25099)
T1 sequence (P25099 whole entry): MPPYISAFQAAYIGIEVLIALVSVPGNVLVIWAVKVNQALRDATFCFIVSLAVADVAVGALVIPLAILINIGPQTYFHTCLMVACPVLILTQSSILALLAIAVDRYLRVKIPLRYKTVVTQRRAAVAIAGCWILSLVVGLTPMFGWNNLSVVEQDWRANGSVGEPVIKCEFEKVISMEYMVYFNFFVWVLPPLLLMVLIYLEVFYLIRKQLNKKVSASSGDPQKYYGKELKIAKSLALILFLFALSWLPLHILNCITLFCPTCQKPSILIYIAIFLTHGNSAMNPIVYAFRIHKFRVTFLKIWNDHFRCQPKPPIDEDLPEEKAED
Assay: Ability to displace [3H]N6-phenylisopropyladenosine binding from adenosine A1 receptor.

In order of rising Ki:
1. COc1cc(O)c2c(c1)O[C@H](c1ccc(O)cc1)CC2=O [5-hydroxy-2-(4-hydroxyphenyl)-7-methoxychroman-4-one]  8.13 µM
2. COc1ccc2c(c1)C(=O)C(O)C(C#Cc1ccccc1)O2 (stereo unspecified)  50.1 µM

Molecular target: T2, Adenosine receptor A3 (Homo sapiens, UniProt P0DMS8)
T2 sequence (P0DMS8 whole entry): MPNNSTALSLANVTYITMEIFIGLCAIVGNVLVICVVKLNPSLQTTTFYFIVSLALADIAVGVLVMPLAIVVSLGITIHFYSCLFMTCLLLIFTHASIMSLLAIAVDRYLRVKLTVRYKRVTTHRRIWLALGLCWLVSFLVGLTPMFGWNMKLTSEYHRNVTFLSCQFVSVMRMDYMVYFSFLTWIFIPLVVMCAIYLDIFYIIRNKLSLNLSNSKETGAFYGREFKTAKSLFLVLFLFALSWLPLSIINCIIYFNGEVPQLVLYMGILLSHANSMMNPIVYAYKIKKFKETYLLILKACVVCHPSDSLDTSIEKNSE
Assay: Ability to displace [125I]-AB-MECA binding from adenosine A3 receptor.

In order of rising Ki:
1. CCOc1c(-c2c(C)cc(C)cc2C)oc2ccc(Cl)cc2c1=O  0.191 µM
2. Cc1ccc(-c2oc3ccc(Cl)cc3c(=O)c2Cl)c(C(C)C)c1 [NSC-74899]  0.562 µM
3. O=c1c(O)c(-c2ccccc2)oc2cc(O)cc(O)c12 [norizalpinin]  0.589 µM
4. COc1cc(OC)c2c(=O)c(OC)c(-c3ccccc3)oc2c1 [3,5,7-Trimethoxy-2-phenyl-chromen-4-one]  0.831 µM
5. COc1cc2oc(-c3ccc(O)cc3)cc(=O)c2c(O)c1OC [cirsimartin]  3.16 µM
6. COc1cc(O)c2c(c1)O[C@H](c1ccc(O)cc1)CC2=O [5-hydroxy-2-(4-hydroxyphenyl)-7-methoxychroman-4-one]  3.39 µM
7. COC1(OC)Cc2oc(-c3ccc(O)cc3O)c(CC=C(C)C)c(=O)c2C(O)=C1/C=C/C(C)C  4.57 µM
8. COc1cc(OC)c2c(=O)c(OC)c(-c3cc(OC)c(OC)c(OC)c3)oc2c1 [3,5,7-Trimethoxy-2-(3,4,5-trimethoxy-phenyl)-chromen-4-one]  6.61 µM
9. COc1ccc2c(c1)C(=O)C(O)C(C#Cc1ccccc1)O2 (stereo unspecified)  8.13 µM
10. O=C1CC(c2ccccc2)Oc2ccccc21 (stereo unspecified) [2-phenyl-2,3-dihydro-4H-chromen-4-one]  16.2 µM
11. O=C1C[C@@H](c2ccc(O)cc2)Oc2ccccc21 [2-(4-hydroxyphenyl)-2,3-dihydro-4H-chromen-4-one]  22.9 µM
12. COc1ccc(-c2cc(=O)c3c(O)cc(C)cc3o2)cc1 [5-Hydroxy-2-(4-methoxy-phenyl)-7-methyl-chromen-4-one]  50.1 µM
